# Test results taken from US11180463B2, “Thiazole inner salt compounds, and preparation methods and uses thereof” (Institute of Pharmacology and Toxicology Academy of …, priority 2013, dated 2021).
# Where “and” joins values, the source holds several entries; their conditions need not be identical. Equal entries are not always repeated. Structures can show the parent of a compound that is named as a salt. Where two headings read alike, the source gives them in different places.
# Key:
# [1] = Accelerated stability test (RT40° C., RH75%); assay type: physicochemical; settings: for Purity* (%) / Weight gain (%) / Appearance and color: RT40° C., RH75%; for Accelerated test, 3 months: appearance after 3 months at 40° C., humidity 75%, three batches
# Description: Three batches of sample (prepared according to Example 2) were taken according to the Chinese Pharmacopoeia, 2010 Edition, packaged like packaging for sale (high-density polyethylene bags were used for drug packaging), placed under conditions of RT40° C., RH75% (NaCl saturated solution) to carry out accelerated test, after 1, 2, 3, 6 months, sampled for observation of the compound of Formula I and the compound of Formula A, compared to the data of the 0th day, and the results were shown in Table 1 and Table 2.
# One batches of sample as prepared according to Example 3 were taken, packaged like packaging for sale (high-density polyethylene bags were used for drug packaging), placed under conditions of RT40° C., RH75% (NaCl saturated solution), after 1, 2, 3 months, sampled and compared to the data of the 0th day, and the results were shown in Table 3.
# Three batches of sample of the compound of Formula A were taken according to the Chinese Pharmacopoeia, 2010 Edition, packaged like packaging for sale (high-density polyethylene bags were used for drug packaging), placed under conditions of RT40° C., RH75% (NaCl saturated solution), after 1, 2, 3 months, sampled and compared to the data of the 0th day, and the results were shown in Table 1 and Table 4.
# [2] = system: RBC surface cross-linked IgG; assay: In vitro breaking erythrocytic surface cross-linked IgG (ELISA, lytic rate); assay type: cell-based; settings: RBC of 16 weeks diabetic rats, 37° C., 16-18 h
# Description: Because erythrocytic surface cross-linked IgG is a typical AGEs cross-linked structure, the determination of degree that a compound breaks erythrocytic surface cross-linked IgG is well known as a better method for evaluating the ability of the compound in breaking AGEs cross-linked structure (Bruceh. R. Wolffenbuttel, Breakers of advanced glycation end products restore large artery properties in experimental diabetes, Natl. Acad. Sci. U.S.A 1998, 95, 4630).
# Method for treating blood cells: 16 weeks diabetic rats were narcotized, blood samples were got from their carotid arteries, added with heparin for anticoagulation, centrifuged at 4° C. and 1000 g for 3 min, the lower layer RBC (red blood cells) was taken; washed with 0.1 mol/L PBS (pH7.4) for 3 times, centrifuged each time at 4° C. and 1000 g for 3 min; and the lower layer RBC was used for test.
# In vitro administration method: 0.1 mol/L isotonic PBS (phosphate buffer) (pH7.4) was used as negative control, each of the compounds to be tested formed solutions with different concentrations using the buffer. Into per 900 μL of solution or solvent, 100 μL RBC was added, slightly shook at 37° C. for 16-18 h; centrifuged at 1000 g, 4° C. for 3 min, the supernatant was discarded, the plate was washed with 0.1 mol/L PBS (pH7.4) for 4 times to remove residual compound; centrifuged at 1000 g, 4° C. for 3 min, the lower layer RBC was diluted in ratio of 1:100 for ELISA determination.
# Procedure for determination of RBC surface cross-linked IgG content via immunoadsorption method: Multiscreen-HA 0.45 μm 96-well plate (Millipore), sealed with Superblock (300 μL/well), 37° C., 1 h; then drained under 5 mmHg of negative pressure, the whole plate was washed with PBST for 3 times, washed with 0.1M PBS (pH7.4) for twice, shaking plate each time for 1 min; added with RBC (50 μL/well) to be tested, another PBS background control well (OD0) was set; drained under negative pressure; washed with 150 μL of 0.1 mol/L PBS (pH7.4) for 4 times, shaking plate each time for 1 min. After being drained under negative pressure, the 1:500 diluted goat-anti-mouse IgG-HRP (50 μL/well) was added, stood at room temperature for 2 h, drained; washed with 0.1 mol/L PBS (pH7.4), 150 μL/well, for 3 times, shaking plate each time for 1 min; drained; added with o-phenylenediamine (OPD) substrate developing solution (100 μL/well), stood at room temperature in dark for 30 min, the reaction was terminated with 2 mol/L H2SO4 (100 μL/well); the reaction solution (150 μL/well) was sucked out quickly and transferred to a normal 96-well ELISA plate, and OD values were determined under 490 nm.
# Calculation of Lytic Rates of the Compounds to be Tested: […]
# [3] = system: rats with diabetes accompanied by hypertension; assay: 24 h urine volume/water intake in rats with diabetes accompanied by hypertension; assay type: in vivo; settings: 3rd week
# Description: In the third week of administration, the rats of each group were solely placed and fed in metabolism cage, and the water intake and urine volume within 24 hours on the 19th, 20th and 21st day were recorded.
# In the 3rd week of administering the compound of Example 2, Vurine/Vwater-intake values of rats in 24 hours were calculated.
# [4] = system: rats with diabetes accompanied by hypertension; assay: Blood pressure monitoring, compound of Example 2 alone (Example 7); assay type: in vivo; settings: after 4 weeks
# long-term diabetic rats = settings: in vivo, cited from earlier work
# [5] = system: rats with diabetes accompanied by hypertension
# Description: In the meantime, pure diabetes group and normal control group of the same week-age were also set. The compound of Example 2 (36 mg/kg) was dissolved in distilled water just before use, administered intragastrically, once per day, for 5 weeks.
# [6] = 36 mg/kg intragastrically once per day, Mean ± SD, n = 12
# [7] = no significant change vs. model
molecule,measurement,setting,value
3-methylcarbonyloxy-4-methyl-thiazole inner salt monohydrate [Example 3],Purity* (%),[1]; 0th month,99.9%
same,Weight gain (%),[1]; 0th month,0%
same,Purity* (%),[1]; 1st month,99.8%
same,Weight gain (%),[1]; 1st month,0.04%
same,Purity* (%),[1]; 2nd month,99.7%
same,Weight gain (%),[1]; 2nd month,0.06%
same,Purity* (%),[1]; 3rd month,99.7%
same,Weight gain (%),[1]; 3rd month,0.07%
Cc1csc[n+]1CC(=O)[O-] (as salt: salt) [Example 2],melting point,,169 °C
Cc1csc[n+]1CC(=O)[O-] [Example 2],Purity* (%),[1]; 0th month,100.0% and 99.6% and 99.8%
same,Weight gain (%),[1]; 0th month,0%
same,Purity* (%),[1]; 1st month,99.7% and 99.8%
same,Weight gain (%),[1]; 1st month,0.11% and 0.12%
same,Purity* (%),[1]; 2nd month,99.6% and 99.2%
same,Weight gain (%),[1]; 2nd month,0.12% and 0.13%
same,Purity* (%),[1]; 3rd month,99.8% and 99.3%
same,Weight gain (%),[1]; 3rd month,0.15% and 0.14% and 0.13%
same,Purity* (%),[1]; 6th month,99.9% and 99.6% and 99.8%
same,Weight gain (%),[1]; 6th month,0.18% and 0.15%
same,"Accelerated test, 3 months",[1],no obvious appearance change no obvious appearance change no obvious appearance change
same,"Lytic rate (decrease of OD value, %)",[2]; 1 μM,27.1 ± 2.2%
same,"Lytic rate (decrease of OD value, %)",[2]; 10 μM,27.5 ± 2.9%
same,"Lytic rate (decrease of OD value, %)",[2]; 30 μM,23.2 ± 5.1%
same,"Lytic rate (decrease of OD value, %)",[2]; 100 μM,27.9 ± 3.0%
same,Vurine,[3]; [6],318.3 ± 106.0 mL
same,Vwater-intake,[3]; [6],375.0 ± 123.6 mL
same,Vurine/Vwater-intake,"[3]; 36 mg/kg, P < 0.01 vs. model",0.86 ± 0.05
same,Vurine/bodyweight,"[3]; first line so headed (r8), 36 mg/kg",0.88 ± 0.31 mL/g
same,Vurine/bodyweight,"[3]; second line so headed (r9), 36 mg/kg",1.03 ± 0.34 mL/g
same,systolic pressure variable coefficient (CV) during time period 10:00-20:00,"[4]; in comparison with the model group, P<0.01",significantly decrease
same,average heart rate during time period 10:00-20:00,[4]; [7],255±17 beats/min
same,average pulse-pressure difference during time period 10:00-20:00,[4]; [7],46.5±5.7 mmHg
"Cc1csc[n+]1CC(=O)O.[Na+] [Formula A, 3-carboxymethyl-4metyl-bromothiazolium sodium salt, reference compound]",Weight gain (%),[1]; 0th month,0%
same,Purity* (%),"[1]; 0th month, sodium salt",98.8% and 99.1% and 98.7%
same,Appearance and color,[1]; 1st month,"brown, tacky"
same,Purity* (%),"[1]; 1st month, sodium salt",85.1% and 82.7% and 81.6%
same,Weight gain (%),"[1]; 1st month, sodium salt",18.0% and 18.5% and 19.0%
same,Appearance and color,[1]; 2nd month,"dark brown,"
same,Purity* (%),"[1]; 2nd month, sodium salt",60.6% and 59.8% and 60.3%
same,Weight gain (%),"[1]; 2nd month, sodium salt",32.6% and 33.6% and 33.8%
same,Appearance and color,[1]; 3rd month,"dark brown,"
same,Purity* (%),"[1]; 3rd month, sodium salt",51.2% and 48.5% and 54.6%
same,Weight gain (%),"[1]; 3rd month, sodium salt",41.5% and 42.1% and 44.0%
same,"Accelerated test, 3 months","[1]; listed as drawing 8, sodium salt","caking, appearance changing into dark brown caking, appearance changing into dark brown caking, appearance changing into dark brown"
same,"Accelerated test, 3 months",[1]; sodium salt,"easy to absorb moisture, agglomerate and change color"
same,"AGEs fluorescence contents of aorta, myocardium of left ventricle and kidney",long-term diabetic rats; long-term diabetic rats,significantly reduce
same,aorta compliance of diabetic rats,long-term diabetic rats; rat,improved
same,cardiac output,long-term diabetic rats; rat,increased
same,left ventricular function,long-term diabetic rats; rat,significantly improved
COC(=O)C1=C(C)NC(C)=C(C(=O)OC)C1c1ccccc1[N+](=O)[O-] [Nifedipine],systolic pressure variable coefficient (CV),[5]; after administration for 1-5 h,0.047±0.017
same,ejection time (ET),[5]; after administration for 20 min,71.8 ± 4.2 ms
same,average systolic pressure,[5]; after administration for 1 h,155.2±14.9 mmHg
same,pressure drop ΔSBP,[5]; after administration for 1.5 h,25.3±9.3 mmHg
same,average pulse-pressure difference (PH),[5]; after administration for 5 h,48.1±5.1 mmHg
same,average systolic pressure,[5]; after administration for 5 h,166.0±15.0 mmHg
same,ejection time (ET),[5]; after administration for 5 h,81.1 ± 5.0 ms
same,pressure drop ΔSBP,[5]; after administration for 5 h,15.9±9.3 mmHg
same,average pulse-pressure difference (PH),[5]; after administration for 10 h,48.7±5.2 mmHg
same,average systolic pressure,[5]; after administration for 10 h,179.0±14.1 mmHg
same,pressure drop ΔSBP,[5]; after administration for 10 h,1.19±3.5 mmHg
same,time after administration at which the systolic pressure started to rise,"[5]; rat, in vivo",2 h
same,time after which pulse-pressure difference (PH) started to rise,"[5]; rat, in vivo",1 h
same,time at which ET recovered the level before administration,"[5]; rat, in vivo",5 h
